# Laboratory results published in US7202280B2, “Methods for the treatment and prevention of pancreatitis and for induction of liver regeneration” (priority 2002, dated 2007).
# Marks after values point to notes of the source that are not given here.
# Columns and labels:
# [1] = system: syngenic and transgenic rats; assay: Hepatic SSAT activity and polyamine pools after partial hepatectomy; type: in vivo, rat
# Text: FIGS. 4a–4d. Hepatic polyamine pools in syngenic and transgenic rats after partial hepatectomy and methylspermidine. […] Three to five animals in each group. Me-spd, methylspermidine.
# The production of transgenic Wistar rats (UKUR30) and mice (UKU181) harboring metallothionein-SSAT fusion gene (Suppola, S., Pietilä, M., Parkkinen, J. J., Korhonen, V. P., Alhonen, L., Halmekytö, M., Porter, C. W., and Jänne, J. (1999) Biochem. J. 338, 311–316) has been described earlier (Alhonen, L., Parkkinen, J. J., Keinänen, T., Sinervirta, R., Herzig, K. H., and Jänne, J. (2000) Proc. Natl. Acad. Sci. U.S.A. 97, 8290–8295; Lukkarinen, J., Gröhn, O., Sinervirta, R., Järvinen, A., Kauppinen, R. A., Jänne, J., and Alhonen, L. (1997) Stroke 28, 639–645). Partial hepatectomy was carried out according to the original method of Higgins and Anderson (Higgins, G. H., and Anderson, R. M. (1931) Arch. Pathol. 12, 186–202). Treatments before partial hepatectomy and the determination of DNA synthesis were carried out as in (Räsänen, T. L., Alhonen, L., Sinervirta, R., Keinänen, T., Herzig, K. H., Suppola, S., Khomutov, A. R., Vepsäläinen, J., and Jänne, J. (2002) J. Biol. Chem. 277, 39867–39872). […] The animals were sacrificed 24 h after the second MDL72527 injection and liver pieces were frozen in liquid nitrogen, homogenized in buffer (25 mM Tris-HCl pH 7.4, 0.1 mM EDTA, 1 mM DTT). An aliquot of the homogenates was used for the polyamine assays. The homogenates were centrifuged (at 13 000×g, for 30 min, at 4° C.) and the supernatants were used for the enzyme activity assays. The Institutional Animal Care and Use Committee of the University of Kuopio and by the Provincial Government approved animal experiments.
# FIG. 4 depicts polyamine concentrations in syngenic and transgenic rats at 24 h after partial hepatectomy. […] This in all likelihood reflected the enhanced SSAT activity. […] In transgenic animals, the low spermidine pool was further decreased in response to the operation (FIG. 4c).
# Liver regeneration could be restored by a prior administration of α-methylspermidine (Räsänen, T. L., Alhonen, L., Sinervirta, R., Keinänen, T., Herzig, K. H., Suppola, S., Khomutov, A. R., Vepsäläinen, J., and Jänne, J. (2002) J. Biol. Chem. 277, 39867–39872). FIG. 10. depicts thymidine incorporation in livers of transgenic rats before and 24 h after partial hepatectomy. […] Table 3 lists the liver pools of polyamines and their analogues before and after partial hepatectomy. […] The analogues were readily accumulated in the livers.
# SSAT transgenic rats = assay: Stability of the analogues in the liver of SSAT transgenic rats without or with MDL72527 (hepatic polyamine pools); type: in vivo, rat; conditions: for metabolic stability / conversion in the liver in vivo: without MDL72527; for conversion to α-methylspermidine in the liver: with MDL72527 50 mg/kg i.p. twice
# Method: FIGS. 8A-8D. Hepatic polyamine pools in SSAT transgenic rats treated with methylated polyamine analogues without or with MDL72527. The rats were injected twice with MDL72527 (50 mg/kg i.p.) at 16-h interval. The polyamine analogues (25 mg/kg i.p.) were injected 2 and 8 h later. The animals were sacrificed 24 h after the last MDL72527 injection. There were three to four animals in each group. Put, putrescine; […] Spd, spermidine; Me-Spd, α-methylspermidine; […] The production of transgenic Wistar rats (UKUR30) and mice (UKU181) harboring metallothionein-SSAT fusion gene (Suppola, […]., Porter, C. W., and Jänne, J. (1999) Biochem. […] (2000) Proc. Natl. Acad. Sci. U.S.A. 97, 8290-8295; Lukkarinen, […]., and Alhonen, L. (1997) Stroke 28, 639-645). Partial hepatectomy was carried out according to the original method of Higgins and Anderson (Higgins, G. H., and Anderson, R. M. (1931) Arch. Pathol. 12, 186-202). Treatments before partial hepatectomy and the determination of DNA synthesis were carried out as in ([…]., Suppola, […]., and […]. Biol. Chem. 277, 39867-39872). Transgenic 10 weeks old male rats were injected twice with MDL72527 (50 mg/kg i.p.) at 16-h interval to inactivate PAO according to (Bolkenius, F. N., Bey, P., and Seiler, N. (1985) Biochim. Biophys. […] An aliquot of the homogenates was used for the polyamine assays. The homogenates were centrifuged (at 13 000×g, for 30 min, at 4° C.) and the supernatants were used for the enzyme activity assays. The Institutional Animal Care and Use Committee of the University of Kuopio and by the Provincial Government approved animal experiments. […] Merck (Darmstadt, Germany).
# [2] = system: syngenic and UKU181 transgenic mice; assay: Plasma α-amylase and ALAT in syngenic and transgenic mice after analogue injection; type: in vivo, mouse
# Method: α-methylspermidine, Bis-α-methylspermine and α-methylspermine were administered in saline. […] The data are expressed as means ±S.D. For statistical analysis, the two-tailed Student's t test was used.
# [3] = transgenic rats, 24 h regenerating liver, 25 mg/kg 20 and 4 h before operation
# [4] = Sg (syngenic) mice, 12.5 mg/kg, 24 h before sacrifice
# [5] = Sg (syngenic) mice, 25 mg/kg, 24 h before sacrifice
# [6] = Sg (syngenic) mice, 37.5 mg/kg, 24 h before sacrifice
# [7] = Sg (syngenic) mice, 50 mg/kg, 24 h before sacrifice
# [8] = Tg (transgenic) mice, 12.5 mg/kg, 24 h before sacrifice
# [9] = Tg (transgenic) mice, 25 mg/kg, 24 h before sacrifice
# [10] = Tg (transgenic) mice, 37.5 mg/kg, 24 h before sacrifice
# [11] = Tg (transgenic) mice, 50 mg/kg, 24 h before sacrifice
# [12] = transgenic rats, 24 h regenerating liver, 5 mg/kg 20 and 4 h before operation
compound,measurement,setting,value
"CC(N)CCNCCCCNCCC(C)N (stereo not drawn) [bis-α-methylspermine, 1,12-dimethylspermine]",Me2-Spm (liver),[1]; [3],381 ± 124 pmoles/mg tissue wet weight
same,Me-Spd (liver),[1]; [3],154 ± 6 pmoles/mg tissue wet weight
same,Put (liver),[1]; [3],4400 ± 275^a pmoles/mg tissue wet weight
same,Spd (liver),[1]; [3],266 ± 55^a pmoles/mg tissue wet weight
same,Spm (liver),[1]; [3],6 ± 8^a pmoles/mg tissue wet weight
same,metabolic stability / conversion in the liver in vivo,SSAT transgenic rats; 25 mg/kg i.p. twice,"converted to α-methylspermidine, but less effectively than α-methylspermine"
same,conversion to α-methylspermidine in the liver,SSAT transgenic rats,totally prevented
same,Plasma ALAT,[2]; [4],49.33 U/dm^3
same,Plasma α-amylase,[2]; [4],3167.33 U/dm^3
same,Plasma ALAT,[2]; [5],57.67 U/dm^3
same,Plasma α-amylase,[2]; [5],2931.00 U/dm^3
same,Plasma ALAT,[2]; [6],35.67 U/dm^3
same,Plasma α-amylase,[2]; [6],2827.00 U/dm^3
same,Plasma ALAT,[2]; [7],62.00 U/dm^3
same,Plasma α-amylase,[2]; [7],2715.33 U/dm^3
same,Plasma ALAT,[2]; [8],50.67 U/dm^3
same,Plasma α-amylase,[2]; [8],2822.67 U/dm^3
same,Plasma ALAT,[2]; [9],45.33 U/dm^3
same,Plasma α-amylase,[2]; [9],3242.33 U/dm^3
same,Plasma ALAT,[2]; [10],31.00 U/dm^3
same,Plasma α-amylase,[2]; [10],2540.00 U/dm^3
same,Plasma ALAT,[2]; [11],60.00 U/dm^3
same,Plasma α-amylase,[2]; [11],2886.00 U/dm^3
"CC(N)CCNCCCCN (stereo not drawn) [α-methylspermidine, 1-methylspermidine]",hepatic spermidine and spermine concentrations,"[1]; 24 h after partial hepatectomy, 50 mg/kg 3 h before",little effect on hepatic spermidine and spermine concentrations
same,accumulation of the analogue in liver,"[1]; normal and transgenic rats, 50 mg/kg 3 h before partial hepatectomy",effectively accumulated in normal and transgenic liver
same,hepatic putrescine pool,"[1]; transgenic rats, 24 h after partial hepatectomy, 50 mg/kg 3 h before",strikingly increased in response to the analogue
same,Me-Spd (liver),[1]; [12],462 ± 41 pmoles/mg tissue wet weight
same,Put (liver),[1]; [12],4540 ± 690^a pmoles/mg tissue wet weight
same,Spd (liver),[1]; [12],183 ± 47^a pmoles/mg tissue wet weight
same,Spm (liver),[1]; [12],18 ± 5^a pmoles/mg tissue wet weight
same,Me-Spd (liver),[1]; [3],864 ± 166 pmoles/mg tissue wet weight
same,Put (liver),[1]; [3],3570 ± 596^a pmoles/mg tissue wet weight
same,Spd (liver),[1]; [3],281 ± 107^a pmoles/mg tissue wet weight
same,Spm (liver),[1]; [3],40 ± 24^a pmoles/mg tissue wet weight
same,hepatic SSAT activity,"[1]; transgenic rats, single dose 3 h prior to partial hepatectomy, 24 h postoperatively",7520±3000 pmol/mg/10 min
same,accumulation in the liver (tissue concentration),SSAT transgenic rats; 25 mg/kg i.p. twice,highest tissue concentrations
same,metabolic stability / conversion in the liver in vivo,SSAT transgenic rats; 25 mg/kg i.p. twice,metabolically stable
same,Plasma ALAT,"[2]; Sg mice, 50 mg/kg, 24 h",17.90 U/dm^3
same,Plasma α-amylase,"[2]; Sg mice, 50 mg/kg, 24 h, not corrected constant",266.76 ± 23.00 ^+ U/dm^3
same,Plasma ALAT,"[2]; Sg mice, 100 mg/kg, 24 h",19.21 U/dm^3
same,Plasma α-amylase,"[2]; Sg mice, 100 mg/kg, 24 h, not corrected constant",281.81 ± 24.11 U/dm^3
same,Plasma ALAT,"[2]; Sg mice, 150 mg/kg, 24 h",18.33 U/dm^3
same,Plasma α-amylase,"[2]; Sg mice, 150 mg/kg, 24 h, not corrected constant",284.83 ± 26.90 U/dm^3
same,Plasma ALAT,"[2]; Sg mice, 250 mg/kg, 24 h",66.00 U/dm^3
same,Plasma α-amylase,"[2]; Sg mice, 250 mg/kg, 24 h, not corrected constant",287.41 ± 74.99 U/dm^3
same,Plasma ALAT,"[2]; Sg mice, 375 mg/kg, 24 h",111.39 U/dm^3
same,Plasma α-amylase,"[2]; Sg mice, 375 mg/kg, 24 h, not corrected constant",654.32 ± 402.95 U/dm^3
same,Plasma ALAT,"[2]; Sg mice, 500 mg/kg, 24 h",32.74 U/dm^3
same,Plasma α-amylase,"[2]; Sg mice, 500 mg/kg, 24 h, not corrected constant",370.45 ± 104.58 U/dm^3
same,Plasma ALAT,"[2]; Tg mice, 50 mg/kg, 24 h",34.92 U/dm^3
same,Plasma α-amylase,"[2]; Tg mice, 50 mg/kg, 24 h, not corrected constant",341.62 ± 44.99 U/dm^3
same,Plasma ALAT,"[2]; Tg mice, 100 mg/kg, 24 h",44.96 U/dm^3
same,Plasma α-amylase,"[2]; Tg mice, 100 mg/kg, 24 h, not corrected constant",302.90 ± 29.54 U/dm^3
same,Plasma ALAT,"[2]; Tg mice, 150 mg/kg, 24 h",41.90 U/dm^3
same,Plasma α-amylase,"[2]; Tg mice, 150 mg/kg, 24 h, not corrected constant",275.79 ± 34.37 U/dm^3
same,Plasma ALAT,"[2]; Tg mice, 250 mg/kg, 24 h",34.05 U/dm^3
same,Plasma α-amylase,"[2]; Tg mice, 250 mg/kg, 24 h, not corrected constant",389.38 ± 213.31 U/dm^3
same,Plasma ALAT,"[2]; Tg mice, 375 mg/kg, 24 h",52.38 U/dm^3
same,Plasma α-amylase,"[2]; Tg mice, 375 mg/kg, 24 h, not corrected constant",314.51 ± 20.72 U/dm^3
"CC(N)CCNCCCCNCCCN (stereo not drawn) [α-methylspermine, 1-methylspermine]",metabolic stability / conversion in the liver in vivo,SSAT transgenic rats; 25 mg/kg i.p. twice,effectively converted to α-methylspermidine
same,conversion to α-methylspermidine in the liver,SSAT transgenic rats,markedly inhibited
same,Plasma ALAT,[2]; [4],54.33 ± 4.16 U/dm^3
same,Plasma α-amylase,[2]; [4],2352.00 ± 206.37 U/dm^3
same,Plasma ALAT,[2]; [5],43.67 ± 4.04 U/dm^3
same,Plasma α-amylase,[2]; [5],2645.67 ± 161.87 ^+ U/dm^3
same,Plasma ALAT,[2]; [6],47.67 ± 13.43 U/dm^3
same,Plasma α-amylase,[2]; [6],2610.67 ± 144.67 U/dm^3
same,Plasma ALAT,[2]; [7],49.00 ± 2.83 U/dm^3
same,Plasma α-amylase,[2]; [7],2512.33 ± 275.71 U/dm^3
same,Plasma ALAT,[2]; [8],58.67 ± 7.77 U/dm^3
same,Plasma α-amylase,[2]; [8],2675.67 ± 305.64 U/dm^3
same,Plasma ALAT,[2]; [9],44.67 ± 5.69 U/dm^3
same,Plasma α-amylase,[2]; [9],2044.67 ± 112.93 U/dm^3
same,Plasma ALAT,[2]; [10],37.00 ± 2.83 U/dm^3
same,Plasma α-amylase,[2]; [10],2450.00 ± 410.12 U/dm^3
same,Plasma ALAT,[2]; [11],41.33 ± 3.79 U/dm^3
same,Plasma α-amylase,[2]; [11],2667.00 ± 297.24 U/dm^3
